The values below come from patent US20240358678A1, “METHODS AND COMPOSITIONS FOR ENHANCING CHEMOTHERAPEUTIC DRUG UPTAKE INTO BRAIN TUMORS” (Brown University, priority 2023, published 2024).

For data set [1], the system named is HCMEC/D3 cells. Briefly: Real-time PCR for CDH5 in HCMEC/D3 cells. The class given is cell-based, human. The note with it: 1 μM BIA, up to 48 hours. The procedure:
Real-time PCR: Total RNA from GBM and HCMEC/D3 cells was obtained and processed as indicated above. For cDNA generation, we used 1 μg of RNA and processed with the iScript™ cDNA synthesis kit (BioRad), following the protocol indicated by the provider. All primers were designed using NCBI Primer-Blast tool. Detailed information on primer sequences can be found in FIG. 25 (Supplementary Table 3). Gene expression levels were quantified using PowerUp SYBR Green Master Mix (Applied Biosciences) on QuantStudio 6 Pro System (Applied Biosciences), normalized by housekeeping gene GAPDH expression and represented as relative expression using comparative ΔΔCT method.

Another data set concerns HBMEC cells. The data set is described as follows: Real-time PCR for CDH5 in HBMEC cells. The note with it: 1 μM BIA, up to 48 hours. The class given is cell-based, human. On the technique in general: Quantitative PCR measures a nucleic acid by following its amplification.
In data set [2] the test system is HCMEC/D3 cells. The data set is described as follows: Cell titer Glo viability assay on HCMEC/D3. The class given is cell-based, human. The note with it: ~1-5 μM BIA, 72 hours. The method, then:
Cell viability assay: Cells were plated at a density of 1500 cells/well in black-well clear bottom 96-well plates and left growing in culture conditions overnight. Next day, cells were treated with titrating doses of the indicated compounds. […] For BIA and cisplatin combinatorial studies, cells were incubated with BIA and cisplatin, and corresponding controls, for 5 days. Next, we used the Cell-Titer Glo 3D (Promega) following provider's guidelines and quantified for luminescence signal using a Molecular Devices SpectraMax M2 plate reader. Conditions were repeated in triplicates.
Background: ATP-based viability assays read luminescence as a measure of living cells.

For data set [3], the system named is HCMEC/D3 cells. The data set is described as follows: Secretome (Luminex cytokine) quantification. The class given is cell-based, human. To be noted: BIA 48 hours. The procedure:
Secretome quantification: For cytokine analysis of brain endothelial cells after BIA exposure, HCMEC/D3 cells were plated at a density of 500,000 cells/well in a 6-well plate. Cells were treated with indicated doses of BIA or DMSO for 48 hours. Then, 1 mL of media was collected and processed for cytokine quantification in a Luminex platform (Thermo Fischer Scientific) following the provider's instructions.

Data set [4] relates to G9-PCDH and G34-PCDH cells. The data set is described as follows: Platinum levels in GBM cells treated with BIA and cisplatin. The class given is cell-based, human. The note with it: 2 μM BIA and cisplatin simultaneously.
The test system of data set [5] is G9-PCDH and G34-PCDH xenograft murine models. Briefly: Immunofluorescence of brain tissue from GBM xenograft models. The class given is in vivo, mice. To be noted: 24 hours after 20 mg/kg BIA. The method, then:
For mouse brain tissue staining, brains were collected from CO2 euthanized and PBS perfused tumor-bearing mice, and fixed in 10% formalin for 72 hours on rotation in the cold. Then, brains were transferred to 30% sucrose for 3 days at 4 degrees Celsius under rotation. Before cryo-sectioning, brains were frozen at −80 degree Celsius for more than 30 minutes, embedded in Optimal Cutting Temperature (OCT) compound (Fisher) and transferred to −27 degrees Celsius to a cryostat (Leica CM1950) for sectioning (20 μm thickness). Sections were placed on slides and staining followed as indicated above. All pictures were taken using a LSM 880 Zeiss confocal microscope.
In vivo studies: For intra-cranial tumor implantation, GBM neuro-spheres were grown to 70% confluency before dissociated into single cell on the day of surgery. 50,000 cells were resuspended in 3 μl of sterile PBS and injected intracranially into the striatum (2 mm right hemisphere, 1 mm frontal, 3 mm depth from bregma) of mice under anesthesia and stereo-tactically fixed. Tumors were left to grow for approximately 2-3 weeks, depending the cell line. Animals were randomized to treatment groups. BIA injections consisted of 20 mg/kg (i.p.), except if indicated otherwise. PPRX-1701 was administered at 20 mg/kg (i.v.) via lateral tail-vein. Cisplatin injections were performed at 5 mg/kg (maximum tolerated dose, i.p.). All GBM tumor murine studies involved continuous condition and weight assessments, with endpoint considered when 20% of weight loss and/or moderate-to-high grimace scale and neurological symptoms were observed.

The test system of data set [6] is patient-derived GBM neuro-spheres. Briefly: GBM neuro-sphere cell viability assay (Cell-Titer Glo 3D), BIA and cisplatin. The class given is cell-based, human. To be noted: BIA 1 μM, 5 days. The method, then: Cell viability assay: Cells were plated at a density of 1500 cells/well in black-well clear bottom 96-well plates and left growing in culture conditions overnight. Next day, cells were treated with titrating doses of the indicated compounds. For BIA only cytotoxicity studies, cells were incubated with BIA for 96 hours. For BIA and cisplatin combinatorial studies, cells were incubated with BIA and cisplatin, and corresponding controls, for 5 days. Next, we used the Cell-Titer Glo 3D (Promega) following provider's guidelines and quantified for luminescence signal using a Molecular Devices SpectraMax M2 plate reader. Conditions were repeated in triplicates.

The next data set deals with G9 tumors. Briefly: Platinum uptake by ICP-MS in G9 tumor-bearing mice (Example 2). The class given is in vivo. To be noted: BiA 20 mg/kg tail vein, cisplatin 5 mg/kg 24 hours later. The procedure:
Inductively Coupled Plasma-Mass Spectrometry (ICP-MS): For platinum quantitation, ICP-MS was performed in an Agilent 7900 ICP mass spectrometer and controlled using the ICP-MS MassHunter software. Machine calibration was performed using a tuning solution (Agilent), containing 1 ng/mL (1 ppb) of Li, Co, Y, Ce and Ti trace-metals. In each experiment, the desired internal standard was added to each sample and standard solution. Standard curves were prepared with potassium tetrachloroplatinate (II) (Thermo Fisher) by generating dilutions of 0.1, 1, 10, 50, 100 and 1000 parts per billion (ppb). Isotopes selected for platinum detection were Pt^195. Performance reports were registered daily for calibration and accuracy records.
For the assessment of the effects of indirubin on intratumoral accumulation of platinum, G9 tumors were implanted intracranially according to the protocols described above. Cisplatin (5 mg/kg) was injected via the tail vein 24 hours post-BIA injection (20 mg/kg vial tail vein), and accumulation measured after a further 5 hours.

Data set [7] concerns human brain microvascular endothelial cell monolayers. The data set is described as follows: RNA sequencing of HBMEC monolayers (Example 3). The note with it: BiA 1 μM, 24 hours. The class given is cell-based. The method, then: RNA Sequencing (RNAseq): RNA sequencing was performed by the Dana Faber molecular biology core according to their standard methods. RNA was prepared from human brain microvascular endothelial cell monolayers after 24 hours treatment with BiA. EXAMPLE 1 EFFECT OF INDIRUBIN ON THE BLOOD-TUMOR BARRIER (BTB)
In order to assess changes in gene expression profiles induced by alterations to barrier functions induced by indirubin, RNA sequencing was performed RNA prepared from human brain microvascular endothelial cell monolayers after 24 hours treatment with BiA. HBMEC monolayers were treated with BiA (1 μM) for 24 hours and gene expression profiles compared with untreated controls.

Consider `CC(=O)ON=C1C(=C2C(=O)Nc3cc(Br)ccc32)Nc2ccccc21` [BIA, 6-bromoindirubin acetoxime], for which, in the data set on HCMEC/D3 cells [1], the “CDH5 expression at the transcriptional level” value was “decreased expression”. Also, in the data set on HBMEC cells, the “CDH5 expression at the transcriptional level” value was “decreased expression”. Besides, the reduction of viability entry with HCMEC/D3 cells [2] is “up to 30%”. Moreover, in the data set with HCMEC/D3 cells [3], the CCL2 secretion result is recorded as “significant downregulation” and the “cytokine secretion profile (TNF-α, IFNg, IL-17A, IL6, IL-1b, prolactin, CCL8, CCL4)” value is recorded as “pro-inflammatory secretion profile”. Further, in data set [4], the “cellular drug (platinum) accumulation due to BIA addition” value was “did not observe any advantage in drug accumulation”. Further, in [5], the “CDH5 expression in contra-lateral healthy brain regions” value is listed as “did not observe significant changes in expression of CDH5”; the “CDH5 in CD31+ endothelial cells and CDH5+ tumor cells” value is recorded as “striking decrease of CDH5”. Further, in data set [5] (G9-PCDH xenograft), the “Claudin-5 staining in tissue” value is on record as “no visible differences in Claudin-5 staining” and the “ZO-1 expression in tissue” value is on record as “mild reductions of ZO-1 expression”. Further, in [6], the “cell viability, BIA single-treatment” value was “reduced the cell viability of cells mildly”. Moreover, the “in vivo uptake of platinum in healthy mouse brain” value in the data set on G9 tumors was “not in healthy mouse brain”. The “in vivo uptake of platinum in tumor tissue” value with G9 tumors (measured after 5 hours) was “significantly increases the in vivo uptake of platinum”. The “gene expression pathways (TGF-β, Wnt signaling, angiogenesis/BTB)” value in [7] is “alteration to major pathways”.
